PMC8222254, “Self-assembly of an anion receptor with metal-dependent kinase inhibition and potent in vitro anti-cancer properties” (Nature Communications, 2021)
“And” between values parts separate entries of the source, which are not always exact repeats. Equal entries are not always repeated. Where two headings read alike, the source gives them in different places.

Columns and labels:
[1] = target: 140 purified human kinases (Homo sapiens, UniProt P50750); test: Kinase inhibition screen, cell-free 33P ATP assay at 10 μM; assay type: biochemical
Procedure, shortened: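 Each complex tested in duplicate at 10 μM; cell-free radiometric assay using ^33P ATP on purified enzymes. Hits mapped by HGNC symbol onto the kinome tree.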

[2] = target: T1, recombinant human AMPK (α1β2γ1) (Homo sapiens, UniProt Q13131); test: Substrate competition assay (ADP-Glo Kinase Assay); assay type: biochemical
T1 construct: purchased Promega

[3] = test system: GBM1 glioblastoma cancer stem cell model; test: Chemosensitivity, 96 h continuous exposure, MTT assay; assay type: cell-based, human; settings: for IC50: GBM1, 96 h, MTT; for Selectivity Index using the NPI non-cancer cell line: IC50 NP1 / IC50 GBM1; for SI (ARPE19): mean IC50 ARPE-19 / mean IC50 GBM1; for SI (MCF10A): mean IC50 MCF10A / mean IC50 GBM1; for SI (NPI): mean IC50 NP1 / mean IC50 GBM1;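 on SI (NPI): adult human brain neural progenitor non-cancer cells from an epilepsy surgery patient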;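 on Selectivity Index using the NPI non-cancer cell line: adult human brain neural progenitor non-cancer cells from an epilepsy surgery patient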
Procedure, shortened: (§1)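 Cells seeded at 2 × 10^3/well (GBM1 3 × 10^3/well) and left overnight at 37 °C, then exposed continuously for 96 h to a range of compound concentrations (final DMSO 0.2%). Viability read by MTT, absorbance at 540 nm; IC50 taken from dose-response curves as concentration reducing cell growth by 50%.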

[4] = test system: NP1 adult brain neural progenitor cells; test: as above; assay type: cell-based, human
Procedure, shortened: as §1

[5] = test system: HCT116 p53+/+; test: Confocal imaging of autophagic cells (CYTO-ID); assay type: cell-based, human; settings: 3.125 µM, 40 h
Procedure: Cells were seeded in Lumox chamber slides (8-well, Sarstedt) at a density of 1.25 × 10^4 cells/well (ARPE-19) or 5.625 × 10^4 cells/well (HCT116 p53^−/− and HCT116 p53^+/+). 24 h after seeding, cells were treated with 3.125 μM of [L2Cu3]^6+, [L2Zn3]^6+, [L2Mn3]^6+, or vehicle control for 40 h before removal and addition of CYTO-ID Green autophagic dye (1:500 dilution, Enzo Life Sciences) and Hoechst 3342 nuclear counter stain for 30 min at 37 °C. Media was then replaced before imaging using a Zeiss LSM880 confocal laser scanning microscope.

[6] = individual run, read-out: IC50 values for each replicate
[7] = mean of at least 3 independent experiments, read-out: Mean IC50
[8] = NP1, 96 h, MTT, individual run, read-out: IC50 values for each replicate
[9] = NP1, 96 h, MTT, mean of at least 3 independent experiments, read-out: Mean IC50
[10] = NP1 non-cancer, read-out: Mean IC50 values

T1 sequence (Q13131 whole entry): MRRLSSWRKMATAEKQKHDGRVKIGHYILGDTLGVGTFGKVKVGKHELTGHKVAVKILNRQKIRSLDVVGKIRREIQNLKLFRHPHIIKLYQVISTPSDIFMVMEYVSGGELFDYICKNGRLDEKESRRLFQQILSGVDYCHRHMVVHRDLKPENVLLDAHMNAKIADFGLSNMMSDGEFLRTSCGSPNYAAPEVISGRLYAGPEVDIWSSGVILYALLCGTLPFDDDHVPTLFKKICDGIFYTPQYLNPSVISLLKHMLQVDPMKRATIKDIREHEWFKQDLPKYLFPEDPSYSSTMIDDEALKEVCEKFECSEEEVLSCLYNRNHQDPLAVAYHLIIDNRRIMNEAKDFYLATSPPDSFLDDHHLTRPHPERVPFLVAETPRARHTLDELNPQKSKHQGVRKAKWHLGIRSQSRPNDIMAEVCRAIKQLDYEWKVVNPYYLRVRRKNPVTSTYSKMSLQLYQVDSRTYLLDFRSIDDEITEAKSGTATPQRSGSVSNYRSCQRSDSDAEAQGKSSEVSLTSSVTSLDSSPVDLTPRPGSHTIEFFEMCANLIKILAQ
T1 sequence (O43741 whole entry partner): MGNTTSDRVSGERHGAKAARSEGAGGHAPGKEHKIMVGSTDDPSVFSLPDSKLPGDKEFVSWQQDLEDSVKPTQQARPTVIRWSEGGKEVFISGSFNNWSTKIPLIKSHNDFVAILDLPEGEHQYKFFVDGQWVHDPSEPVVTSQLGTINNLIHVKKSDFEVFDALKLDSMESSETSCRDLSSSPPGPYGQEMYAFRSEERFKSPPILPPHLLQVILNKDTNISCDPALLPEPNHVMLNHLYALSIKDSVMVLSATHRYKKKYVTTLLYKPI
T1 sequence (P54619 whole entry partner): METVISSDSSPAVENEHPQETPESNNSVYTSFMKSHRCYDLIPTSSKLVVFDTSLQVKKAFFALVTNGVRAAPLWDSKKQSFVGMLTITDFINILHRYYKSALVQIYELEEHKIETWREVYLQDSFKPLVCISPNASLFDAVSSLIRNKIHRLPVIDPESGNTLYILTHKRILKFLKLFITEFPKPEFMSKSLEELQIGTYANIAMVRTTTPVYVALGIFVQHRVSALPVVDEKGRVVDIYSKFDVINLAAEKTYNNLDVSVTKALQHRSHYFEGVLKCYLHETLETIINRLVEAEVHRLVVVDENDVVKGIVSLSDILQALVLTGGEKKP
140 purified human kinases, sequence (P50750 whole entry): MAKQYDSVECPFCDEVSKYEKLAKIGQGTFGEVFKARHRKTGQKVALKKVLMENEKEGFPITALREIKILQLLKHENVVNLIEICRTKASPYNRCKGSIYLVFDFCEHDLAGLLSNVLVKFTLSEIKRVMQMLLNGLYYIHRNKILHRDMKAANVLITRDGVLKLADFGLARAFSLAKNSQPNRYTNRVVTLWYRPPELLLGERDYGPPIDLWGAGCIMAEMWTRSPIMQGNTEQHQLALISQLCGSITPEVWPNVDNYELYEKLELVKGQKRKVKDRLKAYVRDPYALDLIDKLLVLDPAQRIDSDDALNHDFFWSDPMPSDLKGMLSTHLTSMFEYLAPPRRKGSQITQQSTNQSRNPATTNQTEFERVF

| Structure (SMILES) | % Activation, Mean value ([1]; CDK9-Cyclin T1) [%] | % Inhibition, Mean ([1]; CDK9-Cyclin T1) [%] | mean % activity ([1]; CDK9-Cyclin T1) [%] | %AMPK Activity Remaining, Mean (data for the bars) ([2]; Substrate 0.5 mg/ml as printed) [%] | %AMPK Activity Remaining, Mean (data for the bars) ([2]; Substrate 20 mg/ml as printed) [%] | %AMPK Activity Remaining, Mean (data for the bars) ([2]; Substrate 200 mg/ml as printed) [%] | %AMPK Activity Remaining, Mean (data for the bars) ([2]; Substrate 500 mg/ml as printed) [%] | IC50 [3, 6] | IC50 [3, 7] [µM] | Selectivity Index using the NPI non-cancer cell line [3] | SI (ARPE19) [3] | SI (MCF10A) [3] | SI (NPI) [3] | IC50 [4, 8] | IC50 [4, 9] [µM] | IC50 [4, 10] [µM] | induction of autophagy (CYTO-ID) [5] | further results |
| --- | --- | --- | --- | --- | --- | --- | --- | --- | --- | --- | --- | --- | --- | --- | --- | --- | --- | --- |
| [Cu+2].[Cu+2].[Cu+2].c1ccc(-c2csc(NCCN(CCNc3nc(-c4ccccn4)cs3)CCNc3nc(-c4ccccn4)cs3)n2)nc1.c1ccc(-c2csc(NCCN(CCNc3nc(-c4ccccn4)cs3)CCNc3nc(-c4ccccn4)cs3)n2)nc1 [[L2Cu3]6+] | 18 | -18 | 118 | 34.60 | 17.00 | 25.40 | 17.20 | 5.37 µM and 4.48 µM and 5.08 µM | 4.97 | 8.67 | 10.59 | 9.71 | 8.67 | 39.3 µM and 45.1 µM and 44.8 µM | 43.1 | 43.1 | – | % Inhibition Run 1 ([1]; CDK9-Cyclin T1): -1.8%; % Inhibition Run 2 ([1]; CDK9-Cyclin T1): -34.5%; % activity ([1]; CDK9-Cyclin T1, Run 1): 101.8%; % activity ([1]; CDK9-Cyclin T1, Run 2): 134.5%; % Activity Run 1 ([1]; CDK9-Cyclin T1, 10 µM): 101.80%; % Activity Run 2 ([1]; CDK9-Cyclin T1, 10 µM): 134.50%; IC50 ([3]; mean of at least 3 independent experiments, listed as [L2Cu3]^6+, read-out: Mean IC50): > 1 µM |
| [Mn+2].[Mn+2].[Mn+2].c1ccc(-c2csc(NCCN(CCNc3nc(-c4ccccn4)cs3)CCNc3nc(-c4ccccn4)cs3)n2)nc1.c1ccc(-c2csc(NCCN(CCNc3nc(-c4ccccn4)cs3)CCNc3nc(-c4ccccn4)cs3)n2)nc1 [[L2Mn3]6+] | – | – | – | – | – | – | – | – | – | – | – | – | – | – | – | – | evident | – |
| CC(=O)[O-].CC(=O)[O-].CC(=O)[O-].CC(=O)[O-].CC(=O)[O-].CC(=O)[O-].[Zn+2].[Zn+2].[Zn+2].c1ccc(-c2csc(NCCN(CCNc3nc(-c4ccccn4)cs3)CCNc3nc(-c4ccccn4)cs3)n2)nc1.c1ccc(-c2csc(NCCN(CCNc3nc(-c4ccccn4)cs3)CCNc3nc(-c4ccccn4)cs3)n2)nc1 [[L2Zn3]6+] | 6 | -6 | 106 | 42.90 | 39.40 | 43.70 | 35.80 | 3.23 µM and 4.44 µM and 4.32 µM | 4 | 1.95 | 39.31 | 40.41 | 1.95 | 5.77 µM and 8.9 µM and 8.86 µM | 7.78 | 7.78 | barely detectable | % activity ([1]; CDK9-Cyclin T1, duplicate runs): 96% and 117%; IC50 ([3]; mean of at least 3 independent experiments, listed as [L2Zn3]^6+, read-out: Mean IC50): > 1 µM |
